Tests used:
human TSPO [1] = molecular target: T1, human TSPO (Homo sapiens, UniProt P30536); test: Equilibrium [3H]PK11195 radioligand binding assay in U87MG cell membranes
T1 construct: aliquots of U87MG cell membranes (20 μg of proteins) were incubated with [^3H]PK 11195 (1.5 nM); endogenous in cells; host or cells: U87MG human glioblastoma cell membranes
Procedure: Equilibrium radioligand binding assays were performed essentially as previously described. […] Samples were rapidly filtered under vacuum through GF/C glass fiber filters.

human TSPO [2] = molecular target: T1, human TSPO; test: TSPO association/dissociation and competition kinetics with [3H]PK11195; assay type: binding
Text: Association and dissociation rate constants for [^3H]
For competition kinetics, the [^3H]

[3] = Stability test in aqueous solution by HPLC; assay type: physicochemical; settings: 1 μM in PBS with 1% DMSO, within 72 h
Procedure: To test the stability of EB148 in aqueous solution, the compound was dissolved in DMSO and diluted with PBS to the final 1 μM concentration (the amount of DMSO in the final solution was 1%). The solution was maintained in a closed vial and analysed by HPLC at specific times (4, 8, 24, 48 and 72 h) using the following conditions: column Shim-pack VP-ODS 4.6 μm (250 mm × 4.6 mm), isocratic elution with water, flow rate of 1 ml/min, room temperature. The percentage of decomposition was calculated on the base of peak area of the product.

[4] = test system: mitochondria isolated from U87MG cells; test: Mitochondrial membrane potential (Δψm) dissipation, JC-1 protocol; assay type: biochemical, human; settings: 1 μM, 20 min
Procedure: The Δψm dissipation was assessed using the fluorescent dye 5,59,6,69-tetrachloro1,19,3,39-tetraethylbenzimidazolylcarbocyanine iodide (JC-1). Mitochondria were isolated from U87MG cells using the Mitochondria Isolation Kit (Sigma Aldrich, Milan, Italy) following manufacturer's instructions.
Isolated mitochondria were treated for 20 min with EB54 or EB148 (1 μM). In wash-out experiments, mitochondria were then centrifuged at 11.000 × g for 5 min, washed with fresh saline and suspended in JC-1 buffer not containing the drugs. At the end of treatments, 5 μg of control and treated mitochondria were added to the JC-1 dye. The fluorescence (relative fluorescence units, RFU) of the sample was read in a spectrofluorimeter using a time-drive method (one acquisition each 10 sec, for 10 min), where the excitation wavelength was set to 490 nm and emission wavelength at 590 nm. […] Consequently, mitochondrial depolarization is indicated by a decrease in the orange-red fluorescence intensity.

MDM2/p53 complex = molecular target: T2, MDM2/p53 complex (Homo sapiens, UniProt Q00987); test: Dissociation of native MDM2/p53 complex, sandwich immuno-enzymatic assay on U87MG cell lysates; assay type: biochemical
T2 construct: endogenous in cells; host or cells: crude lysates of U87MG human glioblastoma cells
Procedure: Cells were washed twice in ice-cold phosphate-buffered saline, collected by centrifugation, and suspended in lysis buffer (20 mM Tris HCl, 137 mM NaCl, 10% glycerol, 1% NONIDET40, 2 mM EDTA, pH 8) containing 1% of the Protease inhibitor Cocktail (Sigma Aldrich, Milan, Italy). 96-wells were pre-coated with a mouse full-length anti-MDM2 antibody (sc-965, Santa Cruz Biotechnology, 1:50 in 0.05% Poly-L-Ornithine) overnight at room temperature. Cell lysates (20 μg in a final volume of 100 μl) were pre-incubated with DMSO (control), or different compound concentration for 10 min at room temperature, and then transferred to the pre-coated wells for 60 min. After three quick washes with PBS/Tween 0.05% to remove unbound MDM2, each well was incubated for 15 min with 1% BSA, to block nonspecific sites, and then for 1.5 h at room temperature with a rabbit primary anti-p53 antibody (sc-6243, Santa Cruz Biotechnology, 1:250). Then, wells were washed and incubated for 1 h with an anti-rabbit HRP-conjugate antibody, and washed again. […] Blanks were obtained processing cell lysates in the absence of the primary anti-p53 antibody.

p53/MDM2 complex = molecular target: T3, p53/MDM2 complex (Homo sapiens, UniProt Q00987); test: Levels of p53/MDM2 complex in U87MG whole cells (ELISA); assay type: cell-based
T3 construct: endogenous in cells; host or cells: U87MG human glioblastoma cells, treated whole and then lysed
Procedure: U87MG cells were treated with DMSO (control), EB148 or EB54 for different times. When indicated, after 8 h of incubation, cells were washed twice with fresh saline and cultured in drug-free medium for an additional 24 h. At the end of the treatment period, the cells were collected, and suspended in lysis buffer containing 1% of the Protease inhibitor Cocktail.

p53 protein = p53 protein accumulation by western blotting; assay type: cell-based, human
Procedure: U87MG were treated with DMSO (control), EB148 or EB54 for 16 h. […] […] Glyceraldehyde-3-phosphate dehydrogenase (GAPDH) was the loading control ([…], Sigma Aldrich, Milan, Italy, 1:5000). The primary antibodies were detected using the appropriate peroxidase-conjugated secondary antibodies, which were then detected using a chemioluminescent substrate (ECL, Perkin Elmer). Densitometric analysis of the immunoreactive bands was performed using Image J Software.

U87MG cells = test: U87MG cell viability, trypan blue exclusion test; assay type: cell-based, human; settings: 72 h, maximal effect at 100 μM
Procedure: The effects of compound treatment on U87MG cell viability and proliferation were evaluated by Trypan blue exclusion assays and MTS assay, respectively. U87MG cells were treated with EB148 or EB54 for 72 h. Following treatment, harvested cells were mixed with an equal volume of 0.4% trypan blue dye. For quantization of cell viability, blue and bright cells were counted, and viability was calculated as the number of living (bright) and dead (blue) cells in each well. To establish the effect of MDM2 inhibitors on cell proliferation, cells were treated for 72 h with different concentrations of each compound (0.1 nM–100 μM) for 72 h, and then MTS assay was performed according to the manufacturer's instructions.

T1 sequence (P30536 whole entry): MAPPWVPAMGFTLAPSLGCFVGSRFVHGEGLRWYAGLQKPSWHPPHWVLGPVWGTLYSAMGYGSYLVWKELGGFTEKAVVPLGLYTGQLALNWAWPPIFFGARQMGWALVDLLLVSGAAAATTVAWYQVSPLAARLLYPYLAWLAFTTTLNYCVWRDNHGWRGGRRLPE
T3 sequence (Q00987 whole entry, one chain of several): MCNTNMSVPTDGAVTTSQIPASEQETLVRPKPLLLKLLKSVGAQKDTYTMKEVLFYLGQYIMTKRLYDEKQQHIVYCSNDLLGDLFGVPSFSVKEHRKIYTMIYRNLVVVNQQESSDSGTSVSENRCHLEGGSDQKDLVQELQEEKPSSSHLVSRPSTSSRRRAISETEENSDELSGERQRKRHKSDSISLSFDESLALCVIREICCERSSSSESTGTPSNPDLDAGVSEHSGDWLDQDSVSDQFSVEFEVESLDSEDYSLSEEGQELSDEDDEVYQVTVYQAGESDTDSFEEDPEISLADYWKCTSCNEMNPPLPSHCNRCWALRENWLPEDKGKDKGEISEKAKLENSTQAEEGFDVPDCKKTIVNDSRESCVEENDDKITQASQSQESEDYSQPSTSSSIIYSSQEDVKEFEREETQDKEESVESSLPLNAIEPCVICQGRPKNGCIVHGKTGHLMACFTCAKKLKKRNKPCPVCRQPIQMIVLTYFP
T2 sequence (Q00987 whole entry, one chain of several): as above

**Q.** Which results are given for `CCOC(=O)[C@@H](Cc1ccccc1)NC(=O)[C@H](CC(C)C)NC(=O)C(=O)c1c(-c2ccccc2)[nH]c2ccc(N=C=S)cc12` [EB148]?
**A.** Ki (human TSPO [1]): 199 ± 18 nM; koff (human TSPO [2]): 8.01e-05 s⁻¹; kon (human TSPO [2]): 5350 M⁻¹ s⁻¹; Kd (human TSPO [2]; calculated as ratio of estimated koff and kon): 150 nM; average peak area (stability in aqueous solution) [3]: 98.83 ± 0.47%; JC-1 accumulation (Δψm) compared to control untreated mitochondria ([4]; isolated mitochondria): significant reduction; Δψm after mitochondria wash-out ([4]; then centrifuged and washed to remove the ligands): determined Δψm collapse; IC50 (MDM2/p53 complex): 6.81 ± 0.79 nM; p53-MDM2 complex formation after 24 h cell wash-out (p53/MDM2 complex; 1 μM for 8 h, then 24 h wash-out): significantly lower than in the control; p53-MDM2 complex in whole cells (p53/MDM2 complex; 1 μM, 8 h): inhibited; p53 protein levels after wash-out (p53 protein; 1 μM for 16 h, then wash-out of 16 h): maintained high p53 levels; p53 protein levels (p53 protein; 1 μM, 16 h): slight but significant increase; total number of living cells (U87MG cells): reduced the total number of living cells
